Results from patent US20080103198A1, “METHODS FOR TREATMENT OF COCHLEAR AND VESTIBULAR DISORDERS” (priority 2006, published 2008).
Structures can show the parent of a compound that is named as a salt.

Columns and labels:
PC12 cells = test: PC12 cell serum withdrawal model (MTS assay); assay type: cell-based; settings: control cells = 100%
From the text: Serum withdrawal is a cytotoxic environmental challenge that results in cell death in cultured cell lines as well as in primary cells of various tissue origins, including nerve cells. In particular, pheochromocytoma (PC) 12 cells have been widely employed as an in vitro neuronal cell model for a wide variety of neurodegenerative and cell death related disorders (Muriel, et al, Mitochondrial free calcium levels (Rhod-2 fluorescence) and ultrastructural alterations in neuronally differentiated PC12 cells during ceramide-dependent cell death, J. Comp. Neurol., 2000, 426(2), 297-315; Dermitzaki, et al, Opioids transiently prevent activation of apoptotic mechanisms following short periods of serum withdrawal, J. Neurochem., 2000, 74(3), 960-969; Carlile, et al, Reduced apoptosis after nerve growth factor and serum withdrawal: conversion of tetrameric glyceraldehyde-3-phosphate dehydrogenase to a dimer, Mol. Pharmacol., 2000, 57(1), 2-12).
PC12 cells were cultured in sterile media (RPMI 1640) supplemented with 10% heat-inactivated horse serum and 5% fetal bovine serum (FBS). The culture medium also contained Penicillin-Streptomycin-Neomycin antibiotic (50µg, 50µg, 100µg, respectively). Medium was exchanged every other day and the cells were passed in log phase near confluence.
The control cells were cultured in regular media without any treatment. An enantiomer of Formula 7 or Formula 8 (10µM) was mixed well in the medium and then applied to the cells. For the 2 day assay, an enantiomer of Formula 7 or Formula 8 (10µM) was only applied to the cells once at the time of serum withdrawal. For the 7 day assay, an enantiomer of Formula 7 or Formula 8 (10. mu.M) was applied to the cells at the time of serum withdrawal and every 48 hr thereafter when cells were changed with fresh new serum-free medium. In the serum withdrawal group, the cells were cultured in serum-free medium with no additional enantiomer of Formula 7 or Formula 8. Cell survival was determined by the 3-(4,5-dimethylthiazol-2-yl)-5-(3-carboxy-methoxyphenyl)-2-(4-sulfophenyl)-2H-tetrazolium inner salt (MTS) assay at 2 or 7 days after serum withdrawal.
At the end of the experiment, cells were washed with fresh medium and incubated with MTS solution in a humidified 37° C. with 5% CO2 incubator for 1.5 hr. After the incubation period, the cells were immediately analyzed using a Softmax program (Molecular Devices). […] The assay is based on the cellular conversion of the tetrazolium salt, MTS, into a formazan that is soluble in tissue culture medium and measured directly at 490 nm in 96-well assay plates. The absorbance is directly proportional to the number of living cells in culture. The arbitrary absorbance reading in control cells is expressed as 100% survival rate.

[1] = test system: transient cerebral ischemia (MCAO); test: Transient cerebral ischemia middle cerebral artery occlusion (MCAO) rat model; assay type: in vivo; settings: MK 801 3 mg/kg i.p.; N=12
Experimental: The enantiomer of Formula 7 was investigated in the transient cerebral ischemia middle cerebral artery occlusion (MCAO) rat model (as described in Nagasawa H. and Kogure K., Stroke, 1989, 20, 1037; and, Zea Longa E., Weinstein P. R., Carlson S, and Cummins R., Stroke, 1989, 20, 84) using male Wistar rats at 10 and 100 mg/kg (i.v.). MK 801 (Dizocilpine maleate; CAS Registry number 77086-22-7, a commercially available neuroprotectant compound) was used as a positive control (3 mg/kg, i.p.).
Rats (n=12) were randomly allocated to one of four experimental groups and were anesthetized. Blood flow from the internal carotid artery, anterior cerebral artery and posterior cerebral artery into the middle cerebral artery was blocked by this procedure. One hour after blockage, animals were treated over a 1 hour period with vehicle (administered i.v. over the one hour period), control (administered as a single i.p. dose at the start of the one hour period) and two doses of the enantiomer of Formula 7 (administered i.v. over the one hour period). Two hours after blockage, reperfusion was performed.
The animals were sacrificed and […] coronal sections of each brain were prepared. One in every forty sections (i.e. every […]) from the front to the occipital cortex was used to quantify the extent of the cerebral lesion. Slides were prepared using sections stained (according to the Nissl procedure) with cresyl violet and were examined under a light microscope.
Regional ischemic surface areas in the coronal sections of individual rats were determined according to the presence of cells with morphological changes. The areas of neuronal injury or infarction were measured and then added. The cortex and striatum volume were calculated for each animal (total ischemic surface area×0.8 mm (thickness)).
The mean volumes (.+−.S.E.M.) for each animal randomly assigned to the four experimental groups were compared using one-way ANOVA (one way ANOVA is a statistical method which compares 3 or more unmatched groups) followed by Dunnett's t-test (both methods incorporated in Statview 512+software, BarinPower, Calabasas, Calif., USA).

NC(=O)OC[C@H](OC(N)=O)c1ccccc1Cl [Formula 8]
2 Day Survival Rate (PC12 cells; 10 µM applied once at serum withdrawal): 66.4 ± 5.4^1%
7 Day Survival Rate (PC12 cells; 10 µM at serum withdrawal and every 48 hr): 85.2 ± 0.6^2%

C[C@]12N[C@H](Cc3ccccc31)c1ccccc12 [MK 801, Dizocilpine maleate, reference compound]
Mean Infarct Volume ± S.E.M., Cortex Volume [1]: 95.8 ± 24.5^1 mm^3
Mean Infarct Volume ± S.E.M., Striatum [1]: 56.1 ± 5.3^2 mm^3
Mean Infarct Volume ± S.E.M., Total [1]: 151.9 ± 28.7^1 mm^3
